The target in the assay is T1, PCSK9 (Homo sapiens, UniProt Q8NBP7).
T1 construct: gift from Dr. Daniel Kirchhofer, Genentech
Briefly: SPR measurement of PCSK9 binding to synthesized pep2-8. The settings on record: synthesized peptide on streptavidin-coated gold surface, average and standard deviation over PCSK9 concentrations. In general terms: Surface plasmon resonance follows binding to a sensor surface in real time, without labels.

The structures appear in SMILES notation.

T1 sequence (Q8NBP7 153-692, species assumed): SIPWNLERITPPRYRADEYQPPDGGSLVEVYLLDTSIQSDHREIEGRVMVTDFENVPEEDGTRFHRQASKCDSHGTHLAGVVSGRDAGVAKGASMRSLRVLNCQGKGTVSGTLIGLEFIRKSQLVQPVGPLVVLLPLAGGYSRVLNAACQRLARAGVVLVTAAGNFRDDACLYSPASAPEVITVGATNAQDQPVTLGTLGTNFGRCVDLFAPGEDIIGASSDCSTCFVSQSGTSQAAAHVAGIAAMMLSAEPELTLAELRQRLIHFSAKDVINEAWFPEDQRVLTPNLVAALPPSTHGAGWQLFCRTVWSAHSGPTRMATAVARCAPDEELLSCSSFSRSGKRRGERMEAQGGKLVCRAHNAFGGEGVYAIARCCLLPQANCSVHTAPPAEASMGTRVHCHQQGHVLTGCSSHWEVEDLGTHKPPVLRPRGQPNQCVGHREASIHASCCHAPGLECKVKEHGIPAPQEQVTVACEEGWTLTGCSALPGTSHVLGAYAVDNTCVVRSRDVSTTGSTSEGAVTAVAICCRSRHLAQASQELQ
Procedure: The synthesized peptide was immobilized to a streptavidin-coated gold surface. Different concentrations of PCSK9 were flowed to the surface to measure the binding kinetics.
The SPR sensor chip was fabricated by coating 1.5 nm Cr and then 47 nm Au on cover glass (no. 1 VWR) using an e-beam evaporator. Prior to surface functionalization, the gold surface was cleaned with ethanol and DI water twice, dried by N2, and annealed by H2 flame. The gold chip was immersed in a mixture of 0.2 mM SH-PEG8-COOH and 0.2 mM MT(PEG)4 overnight. Then, —COOH was activated using NHS/EDC chemistry (50 mM NHS and 200 mM EDC) for 20 min and incubated with 0.1 mg/mL streptavidin in PBS for 30 min to allow immobilization. The remaining unreacted sites were quenched with 10 mM ethanolamine and the nonspecific binding sites were blocked with SuperBlock for 10 min. […] The functionalized chip was finally rinsed with PBS before the measurement.

Turning to `CC(=O)N[C@H](C(=O)N[C@H](C(=O)N[C@@H](Cc1ccccc1)C(=O)N[C@H](C(=O)N[C@@H](CO)C(=O)N[C@@H](Cc1c[nH]c2ccccc12)C(=O)N[C@@H](CCC(=O)O)C(=O)N[C@@H](CCC(=O)O)C(=O)N[C@@H](Cc1ccc(O)cc1)C(=O)N[C@@H](CC(C)C)C(=O)N[C@@H](CC(=O)O)C(=O)N[C@@H](Cc1c[nH]c2ccccc12)C(=O)N[C@H](C(N)=O)C(C)C)[C@@H](C)O)C(C)C)[C@@H](C)O` [pep2-8], the kd result is on record as “(1.73±0.25)×10^−1 s^−1”.
